# Experimental data published in ChEMBL document CHEMBL5096216, “Rational Design, Synthesis, and Biological Evaluation of Novel S1PR2 Antagonists for Reversing 5-FU-Resistance in Colorectal Cancer” (J Med Chem, 2022).
# Legend:
# SW620/5-FU [1] = test: Antitumor activity against human SW620/5-FU cells xenografted in nude mouse assessed as tumor wight at 15 mg/kg, iv administered once for every 3 days (reference value: 1.3 +/- 0.6 g); type: functional
# SW-620 [2] = test: Antiproliferative activity against human SW620 cells assessed as reduction in cell viability incubated for 48 hrs by MTT assay; type: functional, cell-based; conditions: SW-620, 48 h
# SW620/5-FU [3] = test: Induction of apoptosis in human SW620/5-FU cells assessed as late apoptotic cells at 40 uM incubated for 24 hrs by Annexin-V/PI staining based flow cytometry assay (reference value: 2.97%); type: functional
# SW620/5-FU [4] = test: Antiproliferative activity against human SW620/5-FU cells assessed as reduction in cell viability at 40 uM incubated for 48 hrs by MTT assay; type: functional
# HT-29 [5] = test: Antiproliferative activity against human HT-29 cells assessed as cell growth inhibition at 40 uM incubated for 48 hrs by MTT assay relative to control; type: functional; set-up: scale not given: the % may be the effect or the level left
# NCM460 = test: Cytotoxicity against human NCM460 cells assessed as reduction in cell viability at 40 uM incubated for 48 hrs by MTT assay; type: toxicity, cell-based; conditions: ncm460, 48 h
# SW620/5-FU [6] = test: Antitumor activity against human SW620/5-FU cells xenografted in nude mouse assessed as tumor volume at 15 mg/kg, iv administered once for every 3 days and measured on day 1 (reference value: 105 +/- 14 mm3); type: functional; conditions: time 1 day
# HCT-116 [7] = test: Antiproliferative activity against human HCT-116 cells overexpressing DPD assessed as reduction in cell viability at 40 uM incubated for 48 hrs by MTT assay; type: functional
# SW620/5-FU [8] = test: Antitumor activity against human SW620/5-FU cells xenografted in nude mouse assessed as tumor volume at 15 mg/kg, iv administered once daily and measured on day 15 (reference value: 1991 +/- 469 mm3); type: functional; conditions: time 15 day
# SW620/5-FU [9] = test: Induction of apoptosis in human SW620/5-FU cells assessed as early apoptotic cells at 40 uM incubated for 24 hrs by Annexin-V/PI staining based flow cytometry assay (reference value: 2.73%); type: functional
# HCT-116 [10] = test: Antiproliferative activity against human HCT-116 cells assessed as reduction in cell viability incubated for 48 hrs by MTT assay; conditions: HCT-116, 48 h
# SW620/5-FU [11] = test: Induction of apoptosis in human SW620/5-FU cells assessed as necrotic cells at 40 uM incubated for 24 hrs by Annexin-V/PI staining based flow cytometry assay (reference value: 0%); type: functional
# HT-29 [12] = test: Antiproliferative activity against human HT-29 cells assessed as reduction in cell viability at 40 uM incubated for 48 hrs by MTT assay; type: functional
# SW620/5-FU [13] = test: Antitumor activity against human SW620/5-FU cells xenografted in nude mouse assessed as tumor growth inhibition at 15 mg/kg, iv administered once for every 3 days; type: functional; conditions: 72 h, read-out: TGI
# HCT-116 [14] = test: Antiproliferative activity against human HCT-116 cells assessed as cell growth inhibition at 40 uM incubated for 48 hrs by MTT assay relative to control; type: functional; set-up: scale not given: the % may be the effect or the level left
# SW-620 [15] = test: Antiproliferative activity against human SW620 cells assessed as cell growth inhibition at 40 uM incubated for 48 hrs by MTT assay relative to control; type: functional; set-up: scale not given: the % may be the effect or the level left
# SW620/5-FU [16] = test: Antitumor activity against human SW620/5-FU cells xenografted in nude mouse assessed as tumor growth inhibition at 15 mg/kg/day, iv; type: functional; conditions: read-out: TGI
# SW620/5-FU [17] = test: Induction of apoptosis in human SW620/5-FU cells assessed as viable cells at 40 uM incubated for 24 hrs by Annexin-V/PI staining based flow cytometry assay (reference value: 94.3%); type: functional; conditions: read-out: Activity
# SW620/5-FU [18] = test: Antitumor activity against human SW620/5-FU cells xenografted in nude mouse assessed as tumor wight at 15 mg/kg/day, iv (reference value: 1.3 +/- 0.6 g); type: functional
# SW620/5-FU [19] = test: Antitumor activity against human SW620/5-FU cells xenografted in nude mouse assessed as tumor volume at 15 mg/kg, iv administered once daily and measured on day 1 (reference value: 105 +/- 14 mm3); type: functional; conditions: time 1 day
# SW620/5-FU [20] = test: Antitumor activity against human SW620/5-FU cells xenografted in nude mouse assessed as tumor volume at 15 mg/kg, iv administered once for every 3 days and measured on day 15 (reference value: 1991 +/- 469 mm3); type: functional; conditions: time 15 day
compound,measurement,setting,value
O=c1[nH]cc(F)c(=O)[nH]1 [FLUOROURACIL],Activity,SW620/5-FU [1],1.1 g
same,IC50,SW-620 [2],13.2 µM
same,Activity,SW620/5-FU [3],7.76%
same,Activity,SW620/5-FU [4],9.13%
same,Activity,HT-29 [5],>70%
same,Activity,NCM460,25.33%
same,Activity,SW620/5-FU [6],104 mm3
same,Activity,HCT-116 [7],8.12%
same,Activity,SW620/5-FU [8],1256 mm3
same,Activity,SW620/5-FU [9],4.41%
same,IC50,HCT-116 [10],21.5 µM
same,Activity,SW620/5-FU [11],0.17%
same,Activity,HT-29 [12],5.14%
same,inhibition in vivo at 15 mg/kg,SW620/5-FU [13],15.9%
same,Activity,HCT-116 [14],>70%
same,Activity,SW-620 [15],>70%
same,inhibition in vivo at 15 mg/kg/day,SW620/5-FU [16],36.9%
same,viability at 40 µM,SW620/5-FU [17],87.7%
same,Activity,SW620/5-FU [18],0.8 g
same,Activity,SW620/5-FU [19],102 mm3
same,Activity,SW620/5-FU [20],1675 mm3
